Experimental data reported in ChEMBL document CHEMBL1201862, “PubChem BioAssay data set” (2004).
Calls of active or inactive are those of the source.

Assays:
[1] = NIH3T3 cell viability loss – ATP luminescence, mouse fibroblasts, counter-screen, dose response (AID 2010); type: functional, cell-based;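 note: cells exposed to compound for about 90 hours before reading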
[2] = Trypanosoma cruzi growth suppression in host cells – NIH3T3 host cells, beta-gal luminescence, confirmation (AID 2044); type: functional, cell-based;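 note: intracellular parasites grown in NIH/3T3 mouse fibroblasts as host cells; luminescent beta-galactosidase reporter signal from transgenic T. cruzi replicating inside host cells; inhibitors lower the luminescence signal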
Paired box protein Pax-8 = Paired box protein Pax-8 (Homo sapiens, UniProt Q06710); test: PAX8 transcriptional activity inhibition in RMG-I – RMG-I cells, luciferase, cherry-pick, dose response (AID 687027); type: functional, cell-based;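 note: luciferase reporter driven by Pax8 target thyroperoxidase promoter measured by SteadyGlo luminescence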
INS1 = test: INS-1E survival protection against cytokine death – cell-based, luminescence, retest, dose response (AID 449756); type: functional; settings: Rattus norvegicus;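 note: cell death triggered by IL-1 beta plus TNF-alpha plus IFN-gamma mixture; protective hits raise ATP signal compared with cytokine alone wells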
[3] = cAMP pathway inhibition in counterscreen cell line – TR-FRET cAMP detection, counter-screen for MC4R biased antagonist project, dose response (AID 602305); type: functional, cell-based;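 note: U2OS cells stimulated with forskolin near its EC80 as the cAMP inducer; potency is for inhibition of forskolin-stimulated cAMP signaling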
[4] = non-specific 3'UTR reporter inhibition in Clone20-Shn3RL – cell-based, Renilla luciferase, cherry-picked, counter-screen for Shn3 inhibitor project, dose response (AID 624133); type: functional
Beta-galactosidase = Beta-galactosidase (Escherichia coli, UniProt Q8VNN2); test: PubChem AID 485352; type: functional
Melanocortin receptor 4 = Melanocortin receptor 4 (Homo sapiens, UniProt P32245); test: inhibitors of MC4R cAMP signaling – cell-based, TR-FRET, biased antagonists, dose response (AID 602298); type: functional;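 note: antagonist potency against agonist-stimulated cAMP production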
[5] = reduction of Shn3 3'UTR-driven luciferase in osteoblasts – cell-based, Clone20 osteoblasts, firefly luciferase, cherry-picked, dose response (AID 624132); type: functional;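 note: firefly luciferase luminescence from reporter carrying the Shn3 3'UTR in osteoblasts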
[6] = target: T1, Type-1 angiotensin II receptor (Homo sapiens, UniProt P30556); test: antagonism of angiotensin II type 1 receptor – cell-based, uHTS hits, selectivity assay for APJ receptor antagonist project, dose response (AID 463214); type: functional;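 note: antagonist potency against angiotensin II stimulated AT1 response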
T1 sequence (P30556 whole entry): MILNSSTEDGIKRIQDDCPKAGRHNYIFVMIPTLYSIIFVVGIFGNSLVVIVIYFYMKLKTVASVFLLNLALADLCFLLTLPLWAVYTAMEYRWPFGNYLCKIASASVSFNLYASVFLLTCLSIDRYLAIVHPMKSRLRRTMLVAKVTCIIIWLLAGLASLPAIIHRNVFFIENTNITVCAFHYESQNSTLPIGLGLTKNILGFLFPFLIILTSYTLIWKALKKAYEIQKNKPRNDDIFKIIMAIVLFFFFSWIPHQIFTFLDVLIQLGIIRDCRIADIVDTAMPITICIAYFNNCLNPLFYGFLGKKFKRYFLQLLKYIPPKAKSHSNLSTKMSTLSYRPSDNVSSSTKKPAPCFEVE

Large T antigen = Large T antigen (Simian virus 40, UniProt P03070); type: functional, Betapolyomavirus macacae;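 note: Confirmatory-stage PubChem screen for compounds that inhibit SV40 T antigen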
[7] = loss of viability in HepG2 cells – cell-based, CellTiter-Glo, cherry-picked, cytotoxicity control for Shn3 inhibitor project, dose response (AID 624134); type: functional
[8] = target: T2, Replicative DNA helicase DnaB (Mycobacterium tuberculosis, UniProt P9WMR3); test: DnaB intein splicing inhibitors, dose response, biochemical, cell-free fluorescence (AID 449749); type: functional
T2 sequence (P9WMR3 whole entry): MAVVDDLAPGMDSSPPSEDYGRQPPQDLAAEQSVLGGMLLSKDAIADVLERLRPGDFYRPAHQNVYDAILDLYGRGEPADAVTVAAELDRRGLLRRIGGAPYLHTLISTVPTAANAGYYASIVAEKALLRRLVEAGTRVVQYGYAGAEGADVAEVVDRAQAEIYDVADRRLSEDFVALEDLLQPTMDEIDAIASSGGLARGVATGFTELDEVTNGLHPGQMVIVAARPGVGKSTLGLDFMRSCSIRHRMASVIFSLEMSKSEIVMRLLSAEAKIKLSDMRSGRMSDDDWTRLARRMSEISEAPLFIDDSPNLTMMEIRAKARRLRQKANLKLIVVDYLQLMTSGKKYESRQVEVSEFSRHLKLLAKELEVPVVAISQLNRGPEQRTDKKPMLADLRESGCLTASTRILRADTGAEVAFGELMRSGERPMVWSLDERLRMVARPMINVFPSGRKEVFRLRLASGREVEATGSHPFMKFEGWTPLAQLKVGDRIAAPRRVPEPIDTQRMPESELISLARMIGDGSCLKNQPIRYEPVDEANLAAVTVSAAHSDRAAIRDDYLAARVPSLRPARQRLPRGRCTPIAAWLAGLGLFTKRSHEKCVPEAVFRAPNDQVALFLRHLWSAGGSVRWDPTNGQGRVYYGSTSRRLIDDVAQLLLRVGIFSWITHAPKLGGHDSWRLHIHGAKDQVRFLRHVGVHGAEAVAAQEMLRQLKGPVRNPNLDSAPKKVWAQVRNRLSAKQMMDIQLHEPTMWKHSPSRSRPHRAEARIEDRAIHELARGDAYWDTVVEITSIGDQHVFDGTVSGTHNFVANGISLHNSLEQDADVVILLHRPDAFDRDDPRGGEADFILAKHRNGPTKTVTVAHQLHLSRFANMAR

Protein RecA = target: T3, Protein RecA (Mycobacterium tuberculosis, UniProt P9WHJ3); test: Fluorescence Cell-Free Homogeneous Dose Retest to Identify Inhibitors of RecA-Intein Splicing Activity. [Related pubchem assays (depositor defined):AID2097, AID2223, AID489010, AID492950]; type: functional
T3 sequence (P9WHJ3 whole entry): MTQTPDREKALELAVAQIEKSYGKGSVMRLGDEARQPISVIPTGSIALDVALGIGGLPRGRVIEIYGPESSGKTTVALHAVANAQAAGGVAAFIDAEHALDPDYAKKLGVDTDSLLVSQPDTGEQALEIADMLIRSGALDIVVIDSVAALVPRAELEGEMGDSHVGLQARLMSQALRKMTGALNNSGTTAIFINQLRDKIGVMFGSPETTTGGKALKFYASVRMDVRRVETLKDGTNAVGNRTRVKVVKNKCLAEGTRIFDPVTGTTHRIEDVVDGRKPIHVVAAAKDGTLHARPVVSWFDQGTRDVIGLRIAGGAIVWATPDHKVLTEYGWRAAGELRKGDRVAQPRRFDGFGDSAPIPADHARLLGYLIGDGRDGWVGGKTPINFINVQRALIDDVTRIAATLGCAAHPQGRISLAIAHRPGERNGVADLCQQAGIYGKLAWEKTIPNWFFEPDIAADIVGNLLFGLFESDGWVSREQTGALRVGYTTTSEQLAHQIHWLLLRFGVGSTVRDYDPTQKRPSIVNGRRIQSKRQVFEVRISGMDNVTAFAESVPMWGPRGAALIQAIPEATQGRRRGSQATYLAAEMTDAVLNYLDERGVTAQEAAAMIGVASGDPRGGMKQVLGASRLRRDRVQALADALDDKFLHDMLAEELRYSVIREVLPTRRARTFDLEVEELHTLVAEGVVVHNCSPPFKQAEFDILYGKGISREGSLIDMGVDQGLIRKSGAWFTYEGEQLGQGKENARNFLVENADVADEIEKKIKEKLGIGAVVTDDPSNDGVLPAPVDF

[9] = viability of PTEN-deleted HCT116 cells – cell-based, HCT116 PTEN knockout, dose response (AID 1047); type: functional;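 note: HCT116 colon tumor cells with PTEN knocked out; cells exposed to compound for 60 hours before readout; potency for loss of cell viability measured by luminescence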
[10] = Intein inhibitors as potential Tuberculosis drugs, a cytotoxicity screen. [Related pubchem assays (depositor defined):AID2221, AID2223, AID434968, AID435010, AID449749, AID449750, AID489010]; type: functional
[11] = general cell-killing toxicity readout – plate reader, dry powder samples, cytotoxicity control for PAX8 inhibitor project, dose response (AID 743021); type: functional, cell-based
[12] = viability of HCT116 lacking mutant beta-catenin – cell-based, human colon tumor, dose response (AID 1045); type: functional;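 note: HCT116 colon tumor cells with beta catenin knocked out; cells exposed to compound for 60 hours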
[13] = A Cell Based Secondary Assay To Explore Cytotoxicity of Compounds that Sensitize Mycobacterium Tuberculosis to Beta-Lactam Antibiotics.; type: functional
[14] = target: T4, High affinity choline transporter 1 (Homo sapiens, UniProt Q9GZV3); test: human choline transporter potentiators, potency – cell-based, 10-point CRC, membrane potential dye, dose response (AID 602376); type: functional
T4 sequence (Q9GZV3 whole entry): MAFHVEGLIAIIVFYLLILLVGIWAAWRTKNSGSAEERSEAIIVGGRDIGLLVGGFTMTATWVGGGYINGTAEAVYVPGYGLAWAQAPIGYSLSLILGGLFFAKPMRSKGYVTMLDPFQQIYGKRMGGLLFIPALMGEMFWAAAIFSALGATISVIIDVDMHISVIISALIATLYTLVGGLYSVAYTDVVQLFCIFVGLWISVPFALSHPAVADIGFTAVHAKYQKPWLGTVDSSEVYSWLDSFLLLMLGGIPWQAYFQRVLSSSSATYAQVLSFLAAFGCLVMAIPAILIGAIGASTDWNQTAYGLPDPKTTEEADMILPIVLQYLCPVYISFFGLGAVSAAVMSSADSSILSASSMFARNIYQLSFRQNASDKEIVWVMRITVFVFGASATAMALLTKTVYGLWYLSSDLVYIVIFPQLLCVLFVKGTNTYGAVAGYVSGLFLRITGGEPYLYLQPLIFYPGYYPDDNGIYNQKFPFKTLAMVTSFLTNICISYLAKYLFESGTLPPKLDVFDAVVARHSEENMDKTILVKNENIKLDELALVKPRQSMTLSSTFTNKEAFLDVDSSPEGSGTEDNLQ

[15] = Luminescence Cell-Based Dose Retest to Confirm Inhibitors of Cancer Stem Cells. [Related pubchem assays (depositor defined):AID2717, AID2721]; type: functional; settings: Homo sapiens
[16] = target: Protein disulfide-isomerase (Homo sapiens, UniProt P07237); test: inhibition of PDI-driven insulin aggregation – biochemical, turbidity, absorbance, cherry-picked samples, dose response (AID 602350); type: functional
Protein disulfide-isomerase, sequence (P07237 whole entry): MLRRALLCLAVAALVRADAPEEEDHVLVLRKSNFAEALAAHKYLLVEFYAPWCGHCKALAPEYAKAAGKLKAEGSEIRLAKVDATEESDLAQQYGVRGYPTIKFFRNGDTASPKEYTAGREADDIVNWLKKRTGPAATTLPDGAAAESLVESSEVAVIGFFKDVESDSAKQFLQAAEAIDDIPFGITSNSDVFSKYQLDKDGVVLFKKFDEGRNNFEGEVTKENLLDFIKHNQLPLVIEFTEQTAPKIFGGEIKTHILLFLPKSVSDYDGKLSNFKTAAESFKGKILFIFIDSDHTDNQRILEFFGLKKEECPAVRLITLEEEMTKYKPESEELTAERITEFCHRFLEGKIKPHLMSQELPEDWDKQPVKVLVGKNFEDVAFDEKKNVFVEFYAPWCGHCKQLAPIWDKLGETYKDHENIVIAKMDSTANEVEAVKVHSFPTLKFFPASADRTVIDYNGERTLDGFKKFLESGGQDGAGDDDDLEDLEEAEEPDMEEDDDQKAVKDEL

Paired box protein Pax-8, sequence (Q06710 whole entry): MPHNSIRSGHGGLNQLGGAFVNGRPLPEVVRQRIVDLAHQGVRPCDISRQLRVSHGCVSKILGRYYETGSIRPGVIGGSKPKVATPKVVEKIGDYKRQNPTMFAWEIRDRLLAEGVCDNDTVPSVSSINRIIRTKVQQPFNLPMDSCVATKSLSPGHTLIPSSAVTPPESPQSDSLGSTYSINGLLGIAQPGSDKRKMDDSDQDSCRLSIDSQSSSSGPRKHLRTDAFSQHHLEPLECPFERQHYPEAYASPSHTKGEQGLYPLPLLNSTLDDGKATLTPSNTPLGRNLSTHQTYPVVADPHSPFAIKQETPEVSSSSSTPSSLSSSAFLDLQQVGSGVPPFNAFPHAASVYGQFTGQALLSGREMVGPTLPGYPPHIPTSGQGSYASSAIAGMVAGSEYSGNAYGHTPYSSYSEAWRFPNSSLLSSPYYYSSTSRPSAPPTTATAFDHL
Large T antigen, sequence (P03070 whole entry): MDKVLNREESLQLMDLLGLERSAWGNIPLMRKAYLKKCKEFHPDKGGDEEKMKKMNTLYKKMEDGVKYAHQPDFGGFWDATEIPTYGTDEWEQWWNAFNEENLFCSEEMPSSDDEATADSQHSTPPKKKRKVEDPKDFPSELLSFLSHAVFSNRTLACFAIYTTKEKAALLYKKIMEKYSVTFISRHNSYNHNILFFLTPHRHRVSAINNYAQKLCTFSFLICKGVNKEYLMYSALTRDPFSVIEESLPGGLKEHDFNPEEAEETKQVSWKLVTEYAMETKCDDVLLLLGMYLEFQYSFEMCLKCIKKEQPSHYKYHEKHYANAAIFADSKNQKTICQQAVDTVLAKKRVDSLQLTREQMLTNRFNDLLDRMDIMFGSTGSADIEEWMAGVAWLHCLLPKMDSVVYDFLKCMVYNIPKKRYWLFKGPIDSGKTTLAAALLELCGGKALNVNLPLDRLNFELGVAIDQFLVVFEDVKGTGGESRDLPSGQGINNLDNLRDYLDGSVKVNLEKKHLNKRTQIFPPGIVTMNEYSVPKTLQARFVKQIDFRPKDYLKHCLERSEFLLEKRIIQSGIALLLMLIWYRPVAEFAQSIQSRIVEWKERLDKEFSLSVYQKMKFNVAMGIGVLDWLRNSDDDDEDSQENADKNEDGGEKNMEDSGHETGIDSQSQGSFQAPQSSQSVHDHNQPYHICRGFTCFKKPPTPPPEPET
Beta-galactosidase, sequence (Q8VNN2 whole entry): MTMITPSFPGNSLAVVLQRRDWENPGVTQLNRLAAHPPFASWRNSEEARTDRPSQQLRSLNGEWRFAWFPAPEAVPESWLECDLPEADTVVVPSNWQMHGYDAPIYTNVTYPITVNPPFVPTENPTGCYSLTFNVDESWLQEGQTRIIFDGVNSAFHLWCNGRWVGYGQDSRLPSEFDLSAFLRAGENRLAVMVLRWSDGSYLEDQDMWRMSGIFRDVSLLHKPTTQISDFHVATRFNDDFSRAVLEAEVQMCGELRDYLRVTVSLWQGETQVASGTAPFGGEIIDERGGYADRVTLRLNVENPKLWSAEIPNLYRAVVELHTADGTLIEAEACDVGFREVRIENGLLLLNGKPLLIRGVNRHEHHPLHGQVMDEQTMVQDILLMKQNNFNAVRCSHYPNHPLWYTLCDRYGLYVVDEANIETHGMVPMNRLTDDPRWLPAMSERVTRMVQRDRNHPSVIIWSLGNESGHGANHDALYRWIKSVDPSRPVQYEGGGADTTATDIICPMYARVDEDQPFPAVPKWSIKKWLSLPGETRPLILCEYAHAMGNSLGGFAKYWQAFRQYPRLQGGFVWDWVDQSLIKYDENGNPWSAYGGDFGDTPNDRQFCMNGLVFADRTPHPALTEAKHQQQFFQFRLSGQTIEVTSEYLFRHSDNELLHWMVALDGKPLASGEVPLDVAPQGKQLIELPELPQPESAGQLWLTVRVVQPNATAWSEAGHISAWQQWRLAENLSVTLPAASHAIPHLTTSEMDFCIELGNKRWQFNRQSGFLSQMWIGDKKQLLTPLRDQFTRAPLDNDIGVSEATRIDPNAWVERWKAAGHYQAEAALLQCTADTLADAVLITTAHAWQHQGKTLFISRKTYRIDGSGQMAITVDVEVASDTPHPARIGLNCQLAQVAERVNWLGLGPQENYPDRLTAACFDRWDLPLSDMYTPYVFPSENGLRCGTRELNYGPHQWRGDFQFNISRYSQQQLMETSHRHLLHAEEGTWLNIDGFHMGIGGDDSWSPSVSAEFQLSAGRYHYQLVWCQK
Melanocortin receptor 4, sequence (P32245 whole entry): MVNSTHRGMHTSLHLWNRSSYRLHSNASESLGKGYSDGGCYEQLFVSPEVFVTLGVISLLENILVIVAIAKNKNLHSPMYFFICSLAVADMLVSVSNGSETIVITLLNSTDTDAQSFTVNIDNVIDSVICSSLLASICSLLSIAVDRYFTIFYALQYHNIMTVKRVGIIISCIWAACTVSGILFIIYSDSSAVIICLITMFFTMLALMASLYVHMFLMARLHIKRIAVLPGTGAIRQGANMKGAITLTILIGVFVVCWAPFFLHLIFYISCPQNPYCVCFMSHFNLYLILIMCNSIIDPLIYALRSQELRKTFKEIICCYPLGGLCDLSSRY

With `CCS(=O)(=O)c1ncc(Cl)c(C(=O)Nc2ccc(S(=O)(=O)N3CCCC(C)C3)cc2)n1` (centres undefined) the EC50 [1] was 3.48 µM (active), the EC50 [2] was 2.25 µM (active) and the AC50 (Paired box protein Pax-8) was 5.34 µM (active). For the same compound, the AC50 (INS1) was 4.76 µM (active), the IC50 [3] was > 64.6 µM (inactive) and the AC50 [4] was 3.95 µM (active). The EC50 (Beta-galactosidase) was > 40 µM (inactive), the IC50 (Melanocortin receptor 4) was > 0.797 µM (active) and the AC50 [5] was < 0.26 µM (active). For the same compound, the IC50 [6] was 2.18 µM (active), the IC50 (Large T antigen) was 62.8 µM (active) and the AC50 [7] was 9.33 µM (active).
For `Cc1nn(-c2ccccc2)c(Cl)c1CN(C(=O)CCl)c1cccc2ccccc12`, the AC50 (Paired box protein Pax-8) was 9.95 µM (active), the AC50 [8] was 2.28 µM (active) and the EC50 (Protein RecA) was 0.571 µM (active). The EC50 [9] was 3.44 µM (active), the CC50 [10] was 1.81 µM (active) and the AC50 [11] was 11.3 µM (active). The EC50 [12] was 2.25 µM (active), the CC50 [13] was 0.591 µM (active) and the EC50 [14] was 16.7 µM (active).
In the case of `Oc1ccc(/C=C/c2nc(-c3ccccc3O)n(-c3ccccc3)n2)cc1`, the AC50 [15] was 6.8 µM (active) and the AC50 [16] was 18.8 µM (active).
In the case of `COc1ccc(C2c3ccc(O)cc3Oc3ncn(CCN4CCOCC4)c(=N)c32)cc1OC` (centres undefined), the AC50 [16] was 15.5 µM (active).
